Some test systems named below: A498; ACHN; EKVX; KM12; M14; MDA-N; MOLT-4; NCI-H23; NCI-H460; NCI-H522; NCI/ADR-RES; OVCAR-3; OVCAR-8; PC-3; RPMI-8226; RXF 393; SN12C; SR; TK-10; UACC-257.
Assay in all cases: NCI anticancer screen, dose series, 48 h

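All cell lines were grown in 96-well plates and treated with compound for 48 hours. GI50: concentration for 50% inhibition of growth.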 The source made the active and inactive calls. Rule as the data show it: active = GI50 up to about 1.1 µM and inactive = higher.

Turning to `CCNC(=S)NNC(=O)CSc1nc2ccc(I)cc2c(=O)n1Cc1ccccc1`, the GI50 with A498 is 14.5 µM (inactive); in the test with ACHN, 5.74 µM (inactive); with EKVX, 15.8 µM (inactive); in the test with KM12, 8.77 µM (inactive); in the test on M14, 38.4 µM (inactive); in the test with MDA-N it was 13.5 µM (inactive). The GI50 in the test with MOLT-4 was 7.48 µM (inactive); in the test with NCI-H23, 21.6 µM (inactive); in the test on NCI-H460 it was 12.6 µM (inactive); in the test with NCI-H522, 13.1 µM (inactive); with NCI/ADR-RES, 22 µM (inactive); with OVCAR-3, 18.2 µM (inactive). Further, the GI50 in the test with OVCAR-8 is 22 µM (inactive); in the test on PC-3, 18.5 µM (inactive); in the test on RPMI-8226 it was 14.8 µM (inactive); in the test with RXF 393 it was 11.8 µM (inactive); in the test with SN12C, 10.2 µM (inactive); with SR, 7.43 µM (inactive). For the same compound, the GI50 in the test on TK-10 was > 51.2 µM (inactive); with UACC-257, 17.7 µM (inactive).
Consider `N#CCC1C2CC3C(C2=O)C13` (stereo not given), for which the GI50 in the test with A498, with ACHN, in the test on EKVX, in the test on KM12, in the test with M14 and in the test with MDA-N was > 100 µM (inactive) each time. The GI50 in the test with MOLT-4, in the test with NCI-H23, in the test with NCI-H460, in the test with NCI-H522, in the test with NCI/ADR-RES and with OVCAR-3 was > 100 µM (inactive) each time. Besides, the GI50 with OVCAR-8, in the test with PC-3, in the test on RPMI-8226, with RXF 393, in the test with SN12C and with SR was > 100 µM (inactive) in each case. In addition, the GI50 in the test on TK-10 and in the test on UACC-257 was > 100 µM (inactive) in each case.
For `C=C(CN(C)C)C(=O)c1cc(C)ccc1C`, the GI50 was 23.6 µM (inactive) with A498; 3.54 µM (inactive) with ACHN; 26.2 µM (inactive) in the test with EKVX; 18.6 µM (inactive) with KM12; 2.11 µM (inactive) in the test on M14; 6.84 µM (inactive) in the test with MDA-N. Also, the GI50 in the test with MOLT-4 is 0.371 µM (active); with NCI-H23, 11.4 µM (inactive); in the test with NCI-H460, 19.9 µM (inactive); in the test with NCI-H522 it was 0.843 µM (active); with NCI/ADR-RES, 18.3 µM (inactive); with OVCAR-3, 5.33 µM (inactive). Further, the GI50 in the test with OVCAR-8 was 20.7 µM (inactive); in the test with PC-3, 14.1 µM (inactive); with RPMI-8226 it was 1.42 µM (inactive); with RXF 393, 2.61 µM (inactive); with SN12C, 15.6 µM (inactive); with SR it was 0.726 µM (active). In addition, the GI50 with TK-10 was 8.95 µM (inactive); in the test with UACC-257, 7.96 µM (inactive).
Take `CC1=NN(C(=O)CC(=O)Nc2ccccc2C)C(=O)C1/N=N/c1ccc(C(=O)O)cc1` (stereo not given): the GI50 with A498, in the test with ACHN, in the test on EKVX, with KM12, in the test on M14 and in the test with MDA-N was > 100 µM (inactive) throughout. Also, the GI50 with MOLT-4 was 88.1 µM (inactive); with NCI-H23, > 100 µM (inactive); in the test on NCI-H460 it was > 100 µM (inactive); in the test on NCI-H522, > 100 µM (inactive); in the test with NCI/ADR-RES it was > 100 µM (inactive); in the test with OVCAR-3 it was > 100 µM (inactive). In addition, the GI50 is > 100 µM (inactive) with OVCAR-8; > 100 µM (inactive) in the test with PC-3; > 100 µM (inactive) in the test on RPMI-8226; > 100 µM (inactive) with RXF 393; > 100 µM (inactive) in the test on SN12C; 43.4 µM (inactive) in the test with SR. Further, the GI50 in the test on TK-10 and in the test with UACC-257 was > 100 µM (inactive) each time.
For the compound `O=C(NC/C=C/Br)NC1CCNc2ccccc21` (stereo not given), the GI50 is 31.9 µM (inactive) with A498; 58.3 µM (inactive) in the test on ACHN; 47.6 µM (inactive) with EKVX; 38.2 µM (inactive) in the test with KM12; 17.7 µM (inactive) with M14; 31.9 µM (inactive) in the test on MDA-N. Moreover, the GI50 is 56.8 µM (inactive) with MOLT-4; 16.8 µM (inactive) with NCI-H23; 34.9 µM (inactive) in the test on NCI-H460; 74 µM (inactive) in the test on NCI-H522; 32.1 µM (inactive) in the test on NCI/ADR-RES; 47.2 µM (inactive) in the test with OVCAR-3. The GI50 in the test with OVCAR-8 is 52.7 µM (inactive); in the test on PC-3, 37.3 µM (inactive); with RPMI-8226, 27.2 µM (inactive); in the test with RXF 393, 29.2 µM (inactive); in the test on SN12C, 45.4 µM (inactive); in the test on SR, 35 µM (inactive). Further, the GI50 with TK-10 was 42.3 µM (inactive); in the test on UACC-257, 21.8 µM (inactive).
`COc1cc(Oc2nc3c(N)cc(C(F)(F)F)cc3nc2-c2ccccc2)cc(OC)c1OC`: the GI50 in the test with A498 is 7.89 µM (inactive); in the test on ACHN, 4.55 µM (inactive); in the test with EKVX, 13.1 µM (inactive); with KM12 it was 2.17 µM (inactive); with M14 it was 5.81 µM (inactive); with MDA-N, 0.412 µM (active). Moreover, the GI50 is 3.44 µM (inactive) in the test with MOLT-4; 2.82 µM (inactive) in the test on NCI-H23; 4.14 µM (inactive) with NCI-H460; 2.08 µM (inactive) in the test on NCI-H522; 2.09 µM (inactive) with NCI/ADR-RES; 1.3 µM (inactive) in the test with OVCAR-3. The GI50 in the test with OVCAR-8 is 4.91 µM (inactive); with PC-3, 1.92 µM (inactive); with RPMI-8226, 2.45 µM (inactive); in the test with RXF 393, 5.71 µM (inactive); in the test with SN12C, 8.07 µM (inactive); in the test with SR, 0.624 µM (active). Besides, the figures for the GI50 in the test with TK-10 and with UACC-257 were 26.1 µM (inactive) and 4.09 µM (inactive), respectively.
On to `COc1cc2c(/C=C3/C(=O)Nc4ccccc43)c(Cl)[nH]c2cc1C`, for which the GI50 is 0.0632 µM (active) in the test with A498; 0.0923 µM (active) in the test on ACHN; 0.0521 µM (active) with EKVX; 0.0329 µM (active) with KM12; 0.0366 µM (active) with M14; 0.0191 µM (active) with MDA-N. The GI50 is 0.118 µM (active) in the test with MOLT-4; 0.0407 µM (active) in the test with NCI-H23; 0.0716 µM (active) in the test on NCI-H460; 0.0446 µM (active) in the test with NCI-H522; 0.0263 µM (active) in the test with NCI/ADR-RES; 0.0434 µM (active) in the test on OVCAR-3. The GI50 was 0.0869 µM (active) with OVCAR-8; 0.0435 µM (active) in the test with PC-3; 0.0551 µM (active) in the test on RPMI-8226; 0.311 µM (active) in the test with RXF 393; 0.0845 µM (active) in the test on SN12C; 0.0414 µM (active) in the test on SR. The GI50 in the test with TK-10 was 0.173 µM (active); with UACC-257, 1.52 µM (inactive).

The values are drawn from ChEMBL document CHEMBL1201862, “PubChem BioAssay data set” (2004).
